Laboratory results taken from patent US7799757B2, “Analogs of parathyroid hormone and PTH-related protein as bone anabolic agents” (priority 2002, dated 2010).
Non-standard residues stand in square brackets, D forms with d. Residues, ends and D or L forms follow the SMILES beside them. 2Nal = N[C@@H](Cc1ccc2ccccc2c1)C(=O)O; Nle = CCCC[C@H](N)C(=O)O; βAla = NCCC(=O)O

Columns and labels:
[1] = target: T1, recombinant hPTH1-receptor (Homo sapiens, UniProt Q03431); experiment: Radioreceptor competition binding, 125I-PTH(1-34), HEK293/C21 cells; conditions: 125I-PTH(1-34) ~0.1 nM, 2 h at room temperature
T1 construct: expressed in transfected cells
T1 sequence (Q03431 27-593): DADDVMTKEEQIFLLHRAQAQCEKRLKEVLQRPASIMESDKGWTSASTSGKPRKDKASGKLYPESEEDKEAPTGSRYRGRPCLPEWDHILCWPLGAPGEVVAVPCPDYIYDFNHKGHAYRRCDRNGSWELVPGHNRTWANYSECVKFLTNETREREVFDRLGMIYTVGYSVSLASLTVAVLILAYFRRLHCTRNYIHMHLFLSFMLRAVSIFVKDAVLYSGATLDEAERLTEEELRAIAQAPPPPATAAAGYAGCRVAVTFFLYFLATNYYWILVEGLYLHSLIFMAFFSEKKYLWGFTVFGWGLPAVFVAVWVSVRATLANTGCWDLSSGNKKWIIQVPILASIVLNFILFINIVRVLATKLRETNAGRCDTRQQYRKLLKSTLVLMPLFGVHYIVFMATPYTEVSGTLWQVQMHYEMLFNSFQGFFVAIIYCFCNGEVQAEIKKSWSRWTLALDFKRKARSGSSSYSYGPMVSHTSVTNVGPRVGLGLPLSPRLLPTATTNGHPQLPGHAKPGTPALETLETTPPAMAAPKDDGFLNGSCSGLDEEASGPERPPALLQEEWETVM
Method: (§1) Human embryonic kidney (HEK293) cells, stably transfected with recombinant hPTH1-receptor (HEK293/C21 cell line, ˜400,000 receptors/cell) (Pines, M., Adams, A. E., Stueckle, S., Bessalle, R., Rashti-Behar, V., Chorev, M., Rosenblatt, M., and Suva, L. J. Endocrinology 1994, 135, 1713-1716), were maintained in D-MEM medium supplemented with 10% fetal bovine serum and […] glutamine at 37° C. in a humidified atmosphere of 95% air/5% CO2. The medium was changed every 3-4 days, and the cells were subcultured every week. Ligand stimulated adenylyl cyclase activity and radioreceptor competition binding assays were performed on confluent cultures, 1-3 days after a change of medium.
[Nle^8,18,Nal^23,Tyr^34]bPTH(1-34)-NH2 was radioiodinated and the crude material was purified as previously described (Roubini, E., Duong, L. T., Gibbons, S. W., Leu, C. T., Caulfield, M. P., Chorev, M., and Rosenblatt, M. Biochemistry 1992, 31, 4026-4033). […] The pure mono-radioiodinated peptide was isolated on an analytical RP-HPLC Vydac Protein C18 column (The Separation Group, Hesperia, Calif.) employing a linear gradient of 36-42% B in A for 30 min (A, 0.1% TFA in water; B, 0.1% TFA in acetonitrile) at a flow rate of 1 mL/min, and monitored at 220 nm. […]

[2] = target: T1, recombinant hPTH1-receptor; experiment: Stimulation of adenylyl cyclase activity in HEK293/C21 cells; format: cell-based; conditions: 1 mM IBMX, 5 min incubation, read-out: EC50 (half maximal stimulation of adenylate cyclase)
Method: as §1
Stimulation of adenylyl cyclase activity by the PTH(1-34) analogues was assayed in stably transfected HEK293/C21 as described before (Nakamoto, C., Behar, V., Chin, K. R., Adams, A. E.; Suva, L. J.; Rosenblatt, M.; Chorev, M. Biochemistry 1995, 34, 10546-10552.). Shortly, cells were grown to confluence in 24-well culture dishes. They were then incubated with 0.5 μCi [^3H]adenine in fresh PBS supplemented medium at 37° C. for 2 h and further treated with 1 mM 3-isobutyl-1-methylxantine (IBMX) in fresh medium for 15 min at 37° C. […] Radioactivity was measured in a liquid scintillation counter (Beciman LS6000IC liquid scintillation counter, Downers Grove, Ill.).

Structure (SMILES): CCCC[C@H](NC(=O)[C@H](Cc1ccccc1)NC(=O)[C@H](CCC(N)=O)NC(=O)[C@@H](NC(=O)[C@H](CCC(=O)O)NC(=O)[C@H](CO)NC(=O)[C@@H](NC(=O)[C@H](C)N)C(C)C)[C@@H](C)CC)C(=O)N[C@@H](Cc1c[nH]cn1)C(=O)N[C@@H](CC(N)=O)C(=O)N[C@@H](CC(C)C)C(=O)NCC(=O)N[C@@H](CCCCN)C(=O)N[C@@H](Cc1c[nH]cn1)C(=O)N[C@@H](CC(C)C)C(=O)N[C@@H](CO)C(=O)N[C@@H](CO)C(=O)NCCC(=O)NCCC(=O)N[C@@H](CCCNC(=N)N)C(=O)N[C@H](C(=O)N[C@@H](CCC(=O)O)C(=O)N[C@@H](Cc1ccc2ccccc2c1)C(=O)N[C@@H](CC(C)C)C(=O)N[C@@H](CCCNC(=N)N)C(=O)N[C@@H](CCCCN)C(=O)N[C@@H](CCCCN)C(=O)N[C@@H](CC(C)C)C(=O)N[C@@H](CCC(N)=O)C(=O)N[C@@H](CC(=O)O)C(=O)N[C@H](C(=O)N[C@@H](Cc1c[nH]cn1)C(=O)N[C@@H](CC(N)=O)C(=O)N[C@@H](Cc1ccc(O)cc1)C(N)=O)C(C)C)C(C)C [SEQ ID NO: 14, [Nle^8,β-Ala^18,19,Nal^23,Tyr^34]bPTH(1–34)NH2] (H-AVSEIQF[Nle]HNLGKHLSS[βAla][βAla]RVE[2Nal]LRKKLQDVHNY-NH2; N-terminus assumed)
- IC50 [1]: > 1 µM
- EC50 [2]: 0.01382 ± 2e-05 µM
